Measurements taken from patent US10139394B2, “Method for controlling cancer metastasis or cancer cell migration by modulating the cellular level of lysyl tRNA synthetase” (Medicinal Bioconvergence Research Center, priority 2008, dated 2018).

Key:
phosphorylation of KRS = assay: Laminin-induced phosphorylation of Myc-KRS, immunoprecipitation and immunoblot with anti-p-Thr, -Ser, -Tyr antibodies; format: cell-based, human; conditions: Myc-KRS transfected A549 cells; laminin treatment; FIG. 10
Protocol: In FIG. 7, A549 cells were treated with laminin (10 ug/ml) and the level of 67LR, 37LRP and KRS was determined by Western blotting at the indicated times. Hsp90 and Cadherin were used as markers for cytoplasm and membrane, respectively. In FIG. 8, A549 cells untreated or treated with laminin for 1 h were subjected to immunofluorescence staining with anti-67LR (MLuC5, Santacruz, sc-59732) (red) and -KRS antibodies (green). In FIG. 9, A549 cells were treated with U73122 (U), staurosporin (ST) and LY294002 (LY) that inhibit PLC-gamma, PKC and PI3K, respectively, for 3 hr, then with laminin for 1 hr and checked how these kinase inhibitors would affect the membrane and cytoplasmic level of 67LR and KRS. In FIG. 10, A549 cells were transfected with Myc-KRS and incubated for 24 h. The cells were treated with the indicated chemicals and then with laminin as above. Myc-KRS was immunoprecipitated, and immunoblotted with anti-p-Thr, -Ser, and -Tyr antibodies. In FIG. 11, A549 cells were transfected with Myc-KRS and cultivated for 24 hr. The transfectants were pre-treated with LY294002 for 3 hr and then treated with laminin for 1 h. Myc-KRS was immunoprecipitated and co-precipitation of 67LR was determined by Western blotting. […] EPRS (glutamyl-prolyl-tRNA synthetase) was immunoprecipitated with its specific antibody (AbCam), and co-immunoprecipitation of KRS was determined by Western blotting (upper). […]

A549 cells = assay: Cell migration assay in Transwell chamber; format: cell-based; conditions: laminin 10 μg/ml in lower well, 6 hr, in average, FIG. 24 and 18
Protocol: In FIG. 18, A549 cells were transfected with the indicated plasmids, incubated in the absence and presence of laminin and their effect on cell migration was determined by measuring the migrated cells in transwell chamber as described. The numbers of the cells passed through the membrane were counted and shown in each panel. The experiments were performed three times. In FIG. 19, the cells treated as above were used to determine MMP-2 activity and level by zymography and Western blotting, respectively. In FIG. 20, Breast carcinoma 4T-1 cells were transfected with the indicated siRNA and subcutaneously injected to the back of Balb/C mice. After 21 days, mouse lungs were isolated and tumor nodules over 1 mm in diameter were counted. In FIG. 21, two different 4T-1 cells stably expressing exogenously introduced KRS (KRS-1 and -2) were also inoculated as above and the tumor nodules were counted 30 days after injection. […]
FIGS. 24 to 27 show effect of intracellular and extracellular KRS on cell migration, protein synthesis and cell cycle. In FIG. 24, Migration of A549 cells incubated in the absence of laminin was determined was determined by measuring the migrated cells in Transwell chamber. […] After 6 hr of incubation, the migrant were counted. […] In FIG. 27, A549 cells transfected as indicated were fixed and stained with propidium iodide, and their cell cycle was determined by flow cytometry. […]

laminin: laminin (Engelbreth-Holm-Swarm murine sarcoma) from Sigma
phosphorylated KRS at threonine and serine (phosphorylation of KRS): increased | Migration of the control cells, enhancement (A549 cells): about 6 fold
